The record followed here is publication PMC7251097, “Aspartate/asparagine-β-hydroxylase: a high-throughput mass spectrometric assay for discovery of small molecule inhibitors” (Scientific Reports, 2020).

Where “and” joins values, the source holds several entries; their conditions need not be identical. Equal entries are not always repeated. Structures can show the parent of a compound that is named as a salt. Where two headings read alike, the source gives them in different places.

The target in this assay is T1, His6-AspH315–758 (human aspartate/asparagine-β-hydroxylase, AspH) (Homo sapiens, UniProt Q12797).
T1 construct: N-Terminally His6-tagged human AspH315–758 (His6-AspH315–758) was produced in E. coli BL21 (DE3) cells; made in house; host or cells: E. coli BL21 (DE3), pET-28a(+) vector
T1 sequence (Q12797 315-758): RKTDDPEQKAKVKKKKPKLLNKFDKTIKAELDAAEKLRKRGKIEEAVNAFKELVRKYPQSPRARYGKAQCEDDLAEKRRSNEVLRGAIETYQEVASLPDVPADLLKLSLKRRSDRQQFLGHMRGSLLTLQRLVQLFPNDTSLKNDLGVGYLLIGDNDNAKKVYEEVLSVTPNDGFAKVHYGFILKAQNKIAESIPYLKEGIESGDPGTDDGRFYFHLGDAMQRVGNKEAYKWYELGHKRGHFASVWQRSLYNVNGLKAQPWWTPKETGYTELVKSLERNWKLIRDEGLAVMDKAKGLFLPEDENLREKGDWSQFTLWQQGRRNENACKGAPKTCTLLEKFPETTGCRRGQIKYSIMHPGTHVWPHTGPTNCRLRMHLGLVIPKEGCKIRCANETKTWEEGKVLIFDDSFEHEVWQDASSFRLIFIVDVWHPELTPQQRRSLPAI
Description: SPE-MS AspH inhibition assay (LOPAC screen at fixed 20 μM and IC50 dose-response), hydroxylation of cyclic peptide hFX-CP101–119. Particulars: for IC50: read-out: IC50. In kind it is biochemical.

[1] abbreviates: LOPAC compound at 20uM, plate 2, normalised to DMSO and 2,4-PDCA controls, read-out: Plate 2 (% inhibition).
Where [2] appears, read: LOPAC compound at 20uM, plate 2, conversion of substrate peptide.
[3] abbreviates: LOPAC compound at fixed 20 uM, plate 1, normalised to DMSO and 2,4-PDCA controls.
Where [4] appears, read: LOPAC compound at fixed 20 uM, substrate conversion, plate 1.
The mark [5] stands for this setting: LOPAC Plate 4, compound at 20 uM, substrate conversion.
[6] abbreviates: plate 5 (Pfitzer), test compounds at fixed 20 μM.
[7] abbreviates: plate 5 (Pfitzer), test compounds at fixed 20 μM, mean conversion DMSO 32.88.
The mark [8] stands for this setting: LOPAC Plate 4, compound at 20 uM, read-out: % inhibition.
[9] abbreviates: LOPAC Plate 4, compound at 20 uM.
Where [10] appears, read: 50 nM His6-AspH315–758, 1.0 μM hFX-CP101–119, 3 μM 2OG, 2 μM Fe(II), 50 mM HEPES pH 7.5, 20 °C, mean ± SD, n = 2 (2,4-PDCA n = 10).
Setting [11] is: AspH activity, fixed compound concentration 20 μM, initial LOPAC screen, 0.5%v/v DMSO, read-out: Inhibition at 20 µM [%].
Where [12] appears, read: LOPAC compound at 20uM, plate 2, normalised to DMSO and 2,4-PDCA controls.
Setting [13] is: LOPAC compound at 20uM, plate 3, conversion of substrate peptide.

For orientation: inhibition means the relative decrease from the control value, in per cent. In the case of `NCCc1c[nH]c2ccc(O)cc12` [Serotonin hydrochloride], the “Plate 2 (% conversion)” value is recorded as 31.81%. Further, under setting [1], the inhibition at 20 µM was found to be 12.4%. Regarding `Cc1nc2c([nH]1)c(=O)n(C)c(=O)n2Cc1ccco1` [Furafylline], under setting [2], the “Plate 2 (% conversion)” value was determined as 36.33%. Moreover, the inhibition at 20 µM under setting [1] was -1.12%. With `OC[C@H]1O[C@H]([S-])[C@H](O)[C@@H](O)[C@@H]1O.[Au+]` [Aurothioglucose], the “Plate 3 (% conversion)” value is 23.41%. On to `NC[C@H](O)c1ccc(O)c(O)c1.O=C(O)C(O)C(O)C(=O)O` [L(-)-Norepinephrine bitartrate], for which, under setting [3], the “Plate 1 (% inhibition)” value came out at 89.51%. In addition, the “Plate 1 (% conversion)” value under setting [4] worked out at 5.81%. Take `COc1ccc2c(c[n+](C)c3c4cc5c(cc4ccc23)OCO5)c1OC` [Chelerythrine chloride]: the “Plate 1 (% conversion)” value is 32.96%. The “Plate 1 (% inhibition)” value under setting [3] turned out to be 8.68%.

For the compound `CCCCc1ccc(C(=O)O)nc1` [Fusaric acid], the “Plate 2 (% conversion)” value is given as 28.15%. Moreover, for the setting “read-out: Plate 2 (% inhibition)”, the inhibition at 20 µM is 23.3%.

For `CCOC(=O)C(C)(C)Oc1ccc(Cl)cc1` [Clofibrate], under setting [3], the “Plate 1 (% inhibition)” value is reported as -11.71%. Also, the “Plate 1 (% conversion)” value under setting [4] came out at 39.80%. Take `C=C[C@H]1C[N@@]2CC[C@H]1C[C@@H]2[C@@H](O)c1ccnc2ccc(OC)cc12` [Quinidine sulfate]: the “% conversion” value under setting [5] is listed as 33.25%.

Regarding `N[C@@H]1[C@H]2CN(c3nc4c(cc3F)c(=O)c(C(=O)O)cn4-c3ccc(F)cc3F)C[C@@H]12` [Trovafloxacin], the “Plate 5 (% inhibition)” value under setting [6] was -0.64%. Further, under setting [7], the “Plate 5 (% conversion)” value is reported as 36.53%. Regarding `CC(=O)S[C@@H]1CC2=CC(=O)CC[C@]2(C)[C@H]2CC[C@@]3(C)[C@@H](CC[C@@]34CCC(=O)O4)[C@H]12` [Spironolactone], under setting [5], the “% conversion” value came to 41.84%. Further, under setting [8], the inhibition at 20 µM is -15.7%. Take `CC(C)(C)c1o[nH]c(=O)c1CC(N)C(=O)O` (centres unmarked) [ATPA]: the “Plate 1 (% conversion)” value was 36.48% and the “Plate 1 (% inhibition)” value was -1.82%. What is called % inhibition is how much of the control response was suppressed. Higher therefore signals a strong effect. With `CC(C)(C)c1ccc(/C=C/C(=O)Nc2ccc3c(c2)OCCO3)cc1` [AMG 9810], the “% inhibition” value under setting [9] is 5.34%. In addition, the “% conversion” value under setting [5] came out at 34.65%. As to `CCCN[C@H]1CCc2nc(N)sc2C1` [Pramipexole dihydrochloride], the “% conversion” value under setting [5] was determined as 39.77%. What is called Inhibition is the drop in the measured response relative to a control, in per cent. For the compound `Cc1ccc(C(=O)Nc2ccc(S(=O)(=O)[O-])c3cc(S(=O)(=O)[O-])cc(S(=O)(=O)[O-])c23)cc1NC(=O)c1cccc(NC(=O)Nc2cccc(C(=O)Nc3cc(C(=O)Nc4ccc(S(=O)(=O)[O-])c5cc(S(=O)(=O)[O-])cc(S(=O)(=O)[O-])c45)ccc3C)c2)c1.[Na+].[Na+].[Na+].[Na+].[Na+].[Na+]` [Suramin sodium salt, reference compound], the “Inhibition at 20 µM [%]” value (AspH activity, fixed compound concentration 20 μM, initial LOPAC screen, 0.5%v/v DMSO) turned out to be 103.3%. Moreover, the “% conversion” value under setting [5] was found to be 1.22%.

Usually IC50 stands for the concentration at which inhibition is half-maximal. As to `NC(CO)C(=O)NNCc1ccc(O)c(O)c1O` (centres unmarked) [benserazide, reference compound], under setting [10], the IC50 amounted to 3490 ± 760 nM. Besides, under setting [11], the inhibition at 20 µM was 95.2%. Further, the “Plate 1 (% inhibition)” value under setting [3] is reported as 95.21%. Further, under setting [4], the “Plate 1 (% conversion)” value turned out to be 3.90%. `N[C@@H](Cn1ccc(=O)c(O)c1)C(=O)O` [L-Mimosine from Koa hoale seeds]: the “% conversion” value was determined as 35.13%. The “% inhibition” value under setting [9] was 3.94%. For the compound `CC(C)c1cccc(C(C)C)c1N1C(=O)c2ccc(O)cc2C1=O` [5HPP-33], the “% conversion” value was determined as 25.79%. Regarding `COC[C@H]1OC(=O)c2coc3c2[C@@]1(C)C1=C(C3=O)[C@@H]2CCC(=O)[C@@]2(C)C[C@H]1OC(C)=O` [Wortmannin from Penicillium funiculosum], the “% conversion” value was found to be 29.28%.

As to `COc1ccc(OC)c(C(O)C(C)N)c1` (centres unmarked) [Methoxamine hydrochloride], the “Plate 3 (% conversion)” value is recorded as 32.85%. Regarding `CO[C@@]1(NC(=O)CSCC#N)C(=O)N2C(C(=O)O)=C(CSc3nnnn3C)CS[C@@H]21` [Cefmetazole sodium], the “Plate 1 (% inhibition)” value under setting [3] was -3.81%. Further, the “Plate 1 (% conversion)” value under setting [4] was 37.15%. As to `CC(C)Nc1cccnc1N1CCN(C(=O)c2cc3cc(NS(C)(=O)=O)ccc3[nH]2)CC1` [Delavirdine], the “Plate 5 (% inhibition)” value under setting [6] amounted to 28.61%. Also, the “Plate 5 (% conversion)” value under setting [7] is reported as 26.58%. For the compound `CS(=O)(=O)O.Cn1cc(C(F)(F)F)nc1-c1ccc(OCC(O)CNCCOc2ccc(O)c(C(N)=O)c2)cc1` (centres unmarked) [CGP 20712A methanesulfonate], the “Plate 2 (% conversion)” value under setting [2] is reported as 36.56%. Besides, the “Plate 2 (% inhibition)” value under setting [12] is given as -1.81%.

Turning to `COc1cc(/C=C/C(=O)N2CCC=CC2=O)cc(OC)c1OC` [Piperlongumine], the “Plate 3 (% conversion)” value is given as 35.88%.

For the compound `C=C1C[C@@H]2[C@H](CC[C@]3(C)C(=O)CC[C@@H]23)[C@@]2(C)C=CC(=O)C=C12` [Exemestane], the “Plate 5 (% inhibition)” value turned out to be 2.56%. Further, the “Plate 5 (% conversion)” value under setting [7] is recorded as 35.45%.

Take `CCN(CC)CCCCCCCCOC(=O)c1cc(OC)c(OC)c(OC)c1.Cl` [TMB-8 hydrochloride]: the “Plate 1 (% inhibition)” value under setting [3] was -14.63%. For the same compound, the “Plate 1 (% conversion)” value under setting [4] came out at 40.78%. As to `COc1ccccc1OCC(O)CN1CCN(CC(=O)Nc2c(C)cccc2C)CC1` (centres unmarked) [Ranolazine dihydrochloride], under setting [5], the “% conversion” value is 41.52%. The inhibition at 20 µM under setting [8] was -14.8%. Consider `CC(=O)OCC1=C(C(=O)[O-])N2C(=O)[C@@H](NC(=O)CCC[C@@H](N)C(=O)[O-])[C@H]2SC1.[Zn+2]` [cephalosporin C zinc salt, reference compound], for which the “Inhibition at 20 µM [%]” value turned out to be 98.1% and the “Plate 1 (% conversion)” value stood at 2.94%. Also, the IC50 (pH 7.5) was ~70 nM and 70 nM. For `CCC(C)N(C)C(=O)c1cc2ccccc2c(-c2ccccc2Cl)n1` (centres unmarked) [PK 11195], the “Plate 1 (% inhibition)” value under setting [3] was -10.48%. In addition, the “Plate 1 (% conversion)” value under setting [4] turned out to be 39.39%.

In the case of `CC(N)Cc1c[nH]c2ccc(O)cc12.O=C(O)/C=C\C(=O)O` (stereo not drawn) [alpha-Methyl-5-hydroxytryptamine maleate], the “Plate 3 (% conversion)” value came out at 39.06%. For the compound `COc1cc2c(cc1O)CC[C@@H]1[C@@H]2CC[C@]2(C)[C@@H](O)CC[C@@H]12` [2-methoxyestradiol], the “Plate 3 (% conversion)” value under setting [13] is recorded as 41.59%. As for `CCCc1nn(C)c2c(=O)[nH]c(-c3cc(S(=O)(=O)N4CCN(C)CC4)ccc3OCC)nc12` [sildenafil, reference compound], the “Plate 5 (% conversion)” value is given as 6.67%. Under setting [10], the IC50 was found to be 2450 ± 360 nM. Under setting [11], the inhibition at 20 µM stood at 97.8%. The “Plate 5 (% inhibition)” value under setting [6] was 87.11%. With `Ic1ccccc1CNC1C2CCN(CC2)C1C(c1ccccc1)c1ccccc1.O=C(O)C(=O)O` [L-703,606 oxalate salt hydrate], the “Plate 3 (% conversion)” value was 12.64%.

In the case of `OC(CCN1CCCCC1)(c1ccccc1)C1CC2C=CC1C2` (centres unmarked) [Biperiden hydrochloride], the “Plate 1 (% inhibition)” value under setting [3] is given as -10.34%. Further, the “Plate 1 (% conversion)” value under setting [4] came out at 39.34%. On to `CNCC[C@H](Oc1ccc(C(F)(F)F)cc1)c1ccccc1.Cl` [S-(+)-Fluoxetine hydrochloride], for which the “Plate 2 (% conversion)” value was 45.11%. Besides, the “Plate 2 (% inhibition)” value (20 µM) was -27.34%. Take `O=C(O)C(O)C(O)C(=O)O.c1cnc2cc3c(cc2n1)[C@@H]1CNC[C@H]3C1` [Varenicline tartrate]: the “Plate 1 (% inhibition)” value under setting [3] was 66.93%. Under setting [4], the “Plate 1 (% conversion)” value came out at 13.40%.

`N=C(N)NCCC[C@H](N)C(=O)O` [L-Arginine]: the “Plate 1 (% conversion)” value was 38.11% and the “Plate 1 (% inhibition)” value is given as -6.68%. Take `C[C@]12CCC(=O)C=C1CC[C@@H]1[C@@H]2[C@@H](O)C[C@@]2(C)[C@H]1CC[C@]2(O)C(=O)CO` [Hydrocortisone]: the “Plate 2 (% conversion)” value under setting [2] was 37.93%. In addition, the inhibition at 20 µM under setting [1] is -5.89%. Turning to `CC(N)=O` [Acetamide], under setting [3], the “Plate 1 (% inhibition)” value worked out at 0.92%. The “Plate 1 (% conversion)” value under setting [4] amounted to 35.56%. Take `C[C@H]1O[C@@H](n2cc(F)c(=O)[nH]c2=O)[C@H](O)[C@@H]1O` [5-fluoro-5-deoxyuridine]: the “Plate 2 (% conversion)” value under setting [2] is 36.33%. Under setting [12], the “Plate 2 (% inhibition)” value is on record as -1.12%.

Consider `CCCCCCCC/C=C\CCCCCCCC(=O)NCc1ccc(O)c(OC)c1` [Olvanil], for which the “Plate 3 (% conversion)” value is listed as 40.29%. In the case of `CCN(CC)CCCCNc1ncc2cc(-c3c(Cl)cccc3Cl)c(NC(=O)NC(C)(C)C)nc2n1` [PD-161570], under setting [13], the “Plate 3 (% conversion)” value worked out at 41.21%. The “Plate 5 (% inhibition)” value under setting [6] is on record as -29.14%. Besides, the “Plate 5 (% conversion)” value under setting [7] was determined as 46.23%.
